The source made the active and inactive calls.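 Rule for the calls: active = compounds giving half or more protection of infected cells from virus-caused growth loss, again on retest; inactive = the rest.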
Tested on: CEM cells HIV-1 protection, formazan growth assay
Assay: NCI AIDS Antiviral Assay
Conditions: for IC50: measured here: growth of uninfected CEM cells
Procedure, shortened: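 Human CEM cells, uninfected and HIV-1-infected, exposed to five drug concentrations; growth measured by soluble formazan assay and scored as percent protection from infection, with protecting compounds retested.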

SMILES | EC50 [µM] | IC50 [µM] | outcome
CC(=O)OC1CSc2ccccc2N(C(C)=O)C1 (configuration not stated) | > 355 | > 355 | 
Nc1cc(I)c2cccnc2c1O | > 209 | 1.26 | 
ClC/C=C/C[P+](c1ccccc1)(c1ccccc1)c1ccccc1 | > 200 | 3.16 | 
O=c1c(Cl)c(Cl)cnn1-c1ccc([N+](=O)[O-])cc1[N+](=O)[O-] | > 20.4 | > 20.4 | 
CC1(C)O[C@@H]2COC(=O)[C@@H]2O1 | > 200 | > 200 | 
CC1=CCC[C@@]2(C)C(CC[C@@H]2C(C)/C=C/C(C)C)c2ccc(cc2C(=O)O)C[C@@H](O)CC1 (some centres not stated) |  |  | inactive
Cc1c2n(c(=O)[nH]c1=O)C1OC(CO)C(N=[N+]=[N-])C1O2 (configuration not stated) | > 200 | > 200 | 
CC(=O)C(N=Nc1ccc(S(=O)(=O)NC2ONC(C)C2C)cc1)C(=O)Nc1ccc(Cl)cc1 (configuration not stated) | > 200 | 36.3 | 
CCOc1ccccc1NC(=O)CC1Sc2ccccc2NC1=O (configuration not stated) | > 55 | > 55 | 
COc1ccccc1NC(=O)/C(=C/n1c(=S)[nH]c2cc(C)ccc21)C(C)=O | > 200 | 151 | 
CC1(C)OC2[C@@H](CO[C@@]3([C@@H](O)CCO)OC(C)(C)O[C@@H]23)O1 (some centres not stated) | > 200 | > 200 | 
COc1cc2c3c([nH]c2c(OC)c1OC)CCN(Cc1ccccc1)C3 | > 200 | 66.1 | 
CN(C)CC(NC(NCS)C(=O)NCCNc1ccc(NCCNC(=O)C(NCS)NC(CN(C)C)OCCl)c2c1C(=O)c1c(O)ccc(O)c1C2=O)OCCl (configuration not stated) | > 0.0501 | 0.0182 | 
COC1/C=C/OC2(C)Oc3c(C)c(O)c4c(O)c(c(/C=N/N(C)C5OC(COC(=O)c6ccccc6)C(OC(=O)c6ccccc6)C5OC(=O)c5ccccc5)c(O)c4c3C2=O)NC(=O)C(C)=C/C=C/C(C)C(O)C(C)C(O)C(C)C(OC(C)=O)C1C (configuration not stated) | > 200 | 10 | 
COc1ccc(-c2cc(=O)c3c(O)cccc3o2)cc1 | > 200 | > 200 | 
CC1(C)/C=C/CC2(C)Oc3ccccc3C[C@@H]2CCC2(C)Oc3ccccc3C[C@@H]2C1 (some centres not stated) | > 12 | > 12 | 
FC(F)(F)c1ccc(C2SCc3nc4ccccc4n32)cc1 (configuration not stated) |  |  | inactive
c1ccc(C2C3=C(Nc4ncnn42)c2ccccc2C3)cc1 (configuration not stated) | > 12.6 | 7.24 | 
Clc1ccc(-c2nnc(-c3nsc4ccccc34)o2)cc1 | > 12 | > 12 | 
CCC(C)/C(=C\C(=O)O)C(=O)O (configuration not stated) | > 200 | > 200 | 
COc1ccc(C2C3=C(COC3=O)Oc3cc4c(cc32)OCO4)cc1OC (configuration not stated) | > 20 | 0.603 | 
CC(O)C(O)C(O)C(O)c1nc2ccccc2[nH]1 (configuration not stated) |  |  | inactive

SMILES | EC50 [µM] | IC50 [µM] | outcome
CCOC(=O)Cn1c(=O)[nH]c(=O)c2c1ncn2Cc1ccccc1 | > 550 | 513 | 
C=CCN1C(=O)C(=O)N(CC=C)C(=O)C1=O |  |  | inactive
CC(C)(C)OC(=O)c1cc(NC(=S)c2ccccc2)ccc1Cl | 0.363 | 19.1 | 
C/C(CC(=O)Nc1cccc([N+](=O)[O-])c1)=N\NC(=O)CC#N | > 832 | 447 | 
O=C(c1nc2ccc([N+](=O)[O-])cc2[nH]c1=O)C(O)c1ccc([N+](=O)[O-])cc1 (configuration not stated) | 58.9 | 110 | 
CCOC(=O)/C(=C/c1cccc(Cl)c1)C(=O)c1ccccc1 | > 12 | > 12 | 
CC(CCC(=O)O)c1ccc(Br)cc1 (configuration not stated) |  |  | inactive
CCN=Cc1c(O)c(O)c(C(C)C)c2cc(C)c(-c3c(C)cc4c(C(C)C)c(O)c(O)c(C=NCC)c4c3O)c(O)c12 |  |  | inactive
CCOC(=O)c1cc(C2CCN(Cc3ccccc3)C2=O)c(C(=O)C(=[N+]=[N-])C(C)=O)[nH]1 (configuration not stated) | > 200 | > 200 | 
CCN(CC)CCCNc1nnc2c(=O)n(C)c(=O)n(C)c2n1 | > 200 | > 200 | 
O=S(=O)([O-])[O-].O=c1[nH]cnc2nc[n-]c12.[OH3+].[OH3+].[Zn+2] | > 21.4 | > 21.4 | 
CCOC(=O)CC1(C)SCCN1C(=O)OCC (configuration not stated) | > 200 | > 200 | 
N#CCCC[Si]12OCCN(CCO1)CCO2 |  |  | inactive
Cc1ccc(SSCCN)cc1 | > 200 | 11.7 | 
CN(C)Cc1cc(C(=O)/C=C/c2ccccc2Cl)cc(CN(C)C)c1O | > 200 | 7.24 | 
CCCC(O)c1cn(-c2cccc(S(=O)(=O)O)c2)nn1 (configuration not stated) | > 832 | > 832 | 
COc1cc(C)c(Cc2cnc(N)nc2N)cc1OC | > 200 | > 200 | 
COc1cccc(NC(=O)CC(=O)N2N=C(N(CCC#N)c3ccc(Cl)cc3)CC2c2ccccc2)c1 (configuration not stated) | > 69.2 | > 69.2 | 
c1cc2c3c(c1)[I+]c1cccc(c1-3)[I+]2 | > 100 | 0.12 | 
COc1ccc(Cl)cc1NC(=O)O/N=C(\Cl)C(C)C | > 20 | 2.51 | 
CCOC(=O)NC(=O)c1cn(CCCOC(=O)CCCCCCCCC(=O)OCCCn2cc(C(=O)NC(=O)OCC)c(=O)[nH]c2=O)c(=O)[nH]c1=O |  |  | inactive
O=C(Nc1nc2ccccc2[nH]1)C(=O)NC12CC3CC(CC(C3)C1)C2 |  |  | inactive

SMILES | EC50 [µM] | IC50 [µM] | outcome
C=CCc1cc(CN2CCN(C)CC2)c(O)c(OC)c1 | > 200 | > 200 | 
N/C(=N\NS(=O)(=O)c1ccccc1)Oc1ccc(Br)cc1Br | > 112 | > 112 | 
CC(C)(C)[Si](C)(C)OC[C@H](CO)NC(=O)OCc1ccccc1 | > 200 | 38.9 | 
CCOC(=O)CCC(NC(=O)c1ccc(Nc2nc3cc(C(F)(F)F)ccc3nc2C(=O)OCC)cc1)C(=O)OCC (configuration not stated) | > 191 | 4.57 | 
COC(=O)C1=C2Nc3ccccc3C23CCN2CCC(=O)C[C@H](C1)[C@@H]23 (some centres not stated) | > 107 | > 107 | 
COC(=O)C(CCC1(C)OCCO1)=[N+]=[N-] | > 251 | > 251 | 
CCCc1cc(=O)[nH]c(SCC(=O)O)n1 | > 200 | > 200 | 
NS(=O)(=O)c1ccc(NC(=O)c2ccc3nc4ccccc4c(Nc4ccc(S(N)(=O)=O)cc4)c3c2)cc1 | 67.6 | > 200 | 
COc1ccccc1NC(=O)CC(=O)N1N=C(c2ccccc2)C(N=Nc2ccc(Cl)cc2)C1=O (configuration not stated) | > 74.1 | 64.6 | 
COc1c(C)cc(C(=O)c2cc(C)c(OC)c(Br)c2)cc1Br | > 100 | 95.5 | 
NC(=O)N/N=C(\Cc1nc2ccc(C(=O)c3ccccc3)cc2[nH]c1=O)C(=O)Nc1ccc(Br)cc1 |  |  | inactive
Cc1cc(C2(c3cc(C)c(O)c(CN(CC(=O)O)CC(=O)O)c3)OS(=O)(=O)c3ccccc32)cc(CN(CC(=O)O)CC(=O)O)c1O | 93.3 | > 100 | 
S=C1N=C(Cl)/C(=C\c2ccccc2)N1 | > 200 | > 200 | 
CCCCC(C(=O)C(=O)Nc1ccc(C)cc1C)C(=O)C(C)C (configuration not stated) | > 794 | > 794 | 
Cc1nc(C)c(N2CCN(CN)CC2)c(=O)[nH]1 | > 200 | > 200 | 
c1ccc2nocc2c1 | > 2090 | 1100 | 
Cc1nc(-n2nc(-c3ccccc3)cc2-c2ccccc2)sc1C(=O)CC(=O)C(=O)Nc1ccc(O)cc1 | > 347 | > 347 | 
N#CC(c1ccc(Cl)cc1)c1cccc(Cl)n1 (configuration not stated) | > 70.8 | > 70.8 | 
CCn1c(O)c(C=Nc2ccccc2)s/c1=N/Nc1nc(C)cs1 | > 200 | 174 | 
c1ccc(-n2nc3ccc4nonc4c3n2)cc1 | > 200 | > 200 | 
O=[As]c1ccc(C(=O)O)cc1 (configuration not stated) | > 1170 | 245 | 
O=C1c2ccccc2C(c2ccccc2)C1c1ccccc1 (configuration not stated) | > 200 | 19.5 | 

SMILES | EC50 [µM] | IC50 [µM] | outcome
O=C1Cc2ccccc2N1/N=C\c1ccc(O)cc1 | > 372 | 39.8 | 
CCOC(=O)C(=Cn1c(=S)[nH]c2ccc([N+](=O)[O-])cc21)C(=O)OCC | > 200 | 77.6 | 
CCOC(=O)C1CC(C(=O)c2ccccc2)N2c3ccccc3-c3ccccc3C12 (configuration not stated) | > 200 | 8.51 | 
COc1cc(OC)c2c(c1)C(=O)c1cc(C)cc(O)c1C2=O |  |  | inactive
CCOC(=O)c1cc(-c2ccc(OC)c(OC)c2)c[nH]1 | > 200 | 50.1 | 
O=C(O)CCN(CCC(=O)O)c1ccc(/C=C2\SC(=S)NC2=O)cc1 | > 200 | 170 | 
O=C(CCCN1CCC(n2c(=O)[nH]c3ccccc32)CC1)c1ccc(F)cc1 | > 200 | 89.1 | 
O=[N+]([O-])c1ccc(N/N=C/CC(O)(C(F)(F)F)C(F)(F)F)c([N+](=O)[O-])c1 | > 200 | 7.08 | 
COc1ccc(/C=C\c2cc(OC)c(OC)c(OC)c2)cc1O | > 214 | 0.0692 | 
O=[N+]([O-])c1ccc(/C=C/c2ccc(N=Nc3ccc(/C=C/c4ccc([N+](=O)[O-])cc4S(=O)(=O)O)c(S(=O)(=O)O)c3)cc2S(=O)(=O)O)c(S(=O)(=O)O)c1 | 12.6 | > 200 | 
C=CC1(C)CC(=O)C2(O)C(C)(O1)C(OC(C)=O)C(O)C1C(C)(C)CCC(O)C12C (configuration not stated) |  |  | inactive
CN(C)CC1CCC/C1=N\O (configuration not stated) | > 1580 | 1380 | 
CCC[CH2][Sn]([CH2]CCC)([O]C(=O)/C=C/c1ccccc1F)[O]C(=O)/C=C/c1ccccc1F | > 9.33 | > 9.33 | 
CC(NC1=NCCO1)c1ccccc1Cl (configuration not stated) |  |  | inactive
Cc1ccc(NC(=O)c2cc3c(cc2Cl)Sc2nccn2S3(=O)=O)cc1 | > 200 | 61.7 | 
CN1CCOC(c2ccc(Cl)cc2)O1 (configuration not stated) |  |  | inactive
Cn1cnc2[nH]c(=O)n(O)c(=O)c21 | > 200 | 35.5 | 
Cc1cc2[n-]c1/C=c1\[n-]/c(c(CCC(=O)O)c1C)=C\c1[n-]c(c(C)c1CCC(=O)O)/C=c1/cc(C)/c([n-]1)=C/2.[Ni] | > 9.12 |  | 
CCOC(=O)c1cn(CC)c2ccc3c(c2c1=O)S(=O)(=O)C=C3 | > 200 | 29.5 | 
Cc1ccc(Nc2nc(NS(=O)(=O)c3cc(C(=O)Nc4ccc(Cl)cc4)c(Cl)cc3S)n[nH]2)cc1 | > 195 | 178 | 

From PubChem BioAssay AID179 (DTP/NCI, 2004)
